Measured values taken from article PMC12592502, “Unraveling the mechanisms behind the enhanced efficacy of β-lactam-based sideromycins” (Communications Biology, 2025).
Values after ≈ are worked out from the molar mass of the structure shown. Like-named read-outs stand apart in the source and are kept apart here.

Tests used:
A. baumannii ATCC 19606 = test: MIC, broth microdilution (CLSI); format: cell-based, Acinetobacter baumannii; details: for MIC in combination with PAβN: + 25 µg/mL PAβN; for MIC ratio 0/1: 0 and 1 µg/mL supplemental iron (Table S2); for MIC ratio 1/0: 1 versus 0 µg/mL supplemental iron (peer review file table)
Protocol: (§1) All bacterial strains (see description and sources Table S1) were stored at −80 °C, and grown on tryptone soya agar (TSA) at 35 °C. The iron-deprived (ID)-MHBCA (cation-adjusted Muller-Hinton Broth, Becton Dickinson, Mississauga, ON, Canada) medium was prepared as reported by refs. [21],[50]. Briefly, MHBCA was treated with 10% Chelex® 50-100 mesh (Sigma) and stirred for 6 h at room temperature. The resin was removed by filtration. Divalent Ca^2+ (CaCl2), Mg^2+ (MgCl2), and Zn^2+(ZnSO4), were then added in the iron-depleted medium at 22, 12, and 1 μg/ml respectively. Finally, the pH was adjusted to 7.3, and the medium was sterilized with a 0.2-μm filter. Regular MHBCA (i.e., not treated with Chelex®) was used to compare the inhibitory activity of conjugates in iron-sufficient conditions. The resin used for Chelex treatment was always fresh and had never been regenerated, ensuring consistent iron removal.
(§2) Minimal inhibitory concentrations (MICs) were performed using a broth microdilution technique according to the Clinical and Laboratory Standards Institute (CLSI) guidelines. MICs were determined in MHBCA and in ID-MHBCA. To check the impact of β-lactamases, MICs in the presence of a β-lactamase inhibitor were also determined. The inhibitor was homogenized at 2X the final concentration and added to the bacterial inoculum just before distributing cells into the wells containing the drug dilutions. The final concentration of each inhibitor was 4 μg/mL for clavulanic acid (tested against K. pneumoniae) and 200 μg/mL for 3-aminophenylboronic acid (tested against P. aeruginosa and A. baumannii).

[1] = system: P. aeruginosa 2302 MexAB, MexCD, MexEF upregulated; test: MIC, efflux pump overexpressing strain; format: cell-based, Pseudomonas aeruginosa; details: Pseudomonas aeruginosa
Protocol: as §2

P. aeruginosa 1020 = test: MIC, parent of efflux pump mutants; format: cell-based, Pseudomonas aeruginosa; details: Pseudomonas aeruginosa
Protocol: as §2

PBP1a/1b = test: Membrane PBP binding assay, competition with Bocillin FL; design: species or system E. coli MC4100; details: for IC50: E. coli MC4100 membranes, 12.5 μM Bocillin FL
Protocol: (§3) Membrane extracts containing PBPs were obtained as described above. Briefly, all species were grown in 1 L of TSB until the OD600 reached 0.9. The washed pellet was incubated with lysozyme (400 μg/mL), DNase (10 μg/mL) RNase(10 μg/mL) and anti-protease cocktail (200 mg/20 mL). Lysis was done with a French press (20,000 psi) and membrane protein were pelleted by ultracentrifugation steps (100,000 × g). The pellet was suspended in a minimal volume (300–500 μL) of KP 0.05 M buffer at pH 7. The protein concentration in the membrane preparations was determined with the Micro BCA TM Protein Assay Kit (Thermo Fisher Scientific, Rockford, IL) using bovine serum albumin as a standard.
(§4) The PBP binding assay was done as described previously[36],[56],[57]. For each antibiotic concentration tested, a quantity of 25 to 40 μg of membrane preparation was used as the source of PBPs, depending on the species. For the purified PaPBP3, 150 ng was used in the assay. First, increasing concentrations of the test antibiotic was added to the membrane or purified PaPBP3 preparations and incubated for 10 min at 30 °C. The reporter molecule Bocillin FL was then added at 12.5 μM for the membrane PBPs preparations and at 500 nM for the pure PaPBP3 samples for an additional 20 min at 30 °C. All reactions were stopped with the addition of the Laemmli-loading buffer (Bio-Rad) containing fresh β-mercaptoethanol (Sigma). All reactions were then heated at 100°C for 3 min before migration on SDS-polyacrylamide discontinuous gel system (7.5% stacking and 10% separating). Control samples without Bocillin FL were also included to highlight autofluorescent proteins that are not PBPs.
(§5) To be able to visualize labeled PBPs after electrophoresis, gels were rinsed in water and fixed in a solution of 50% methanol and 7% acetic acid for 30 min. The fluorescent images of gels were obtained with the Typhoon FLA 9500 instrument (GE-Healthcare Bio-Sciences Inc., Baie-d’Urfé, QC, CA) using a 473 nm excitation wavelength. To obtain quantifiable data, the software Quantity One 1D analysis was used (version 4.6.6; Bio-Rad Laboratories, Richmond, CA). The volume (intensity × constant area) of each PBP was measured. […] All IC50 data were obtained from at least two independent PBP binding assays using two different sets of compound concentrations using a linear regression. The PBP profiles were confirmed, and the PBP numbering were determined using published data and individual molecular weights. […] For example, amdinocillin (Sigma) was used for PBP2 identification. […] The IC50 for PBP 2 of P. aeruginosa was measured by including the SDS-PAGE comigrating autofluorescent protein in the background, as done previously.

PBP4 = target: T1, PBP4 (Escherichia coli, UniProt P24228); test: as above; design: species or system E. coli MC4100
T1 construct: using bacterial membranes as the source of PBPs; endogenous in cells; host or cells: E. coli MC4100 membrane preparation
Protocol: as §3, §4, §5

PBP2 = target: T2, PBP2 (Escherichia coli, UniProt P0AD65); test: as above; design: species or system E. coli MC4100
T2 construct: using bacterial membranes as the source of PBPs; endogenous in cells; host or cells: E. coli MC4100 membrane preparation
Protocol: as §3, §4, §5

PBP3 = target: T3, PBP3 (Escherichia coli, UniProt P0AD68); test: as above; design: species or system E. coli MC4100
T3 construct: using bacterial membranes as the source of PBPs; endogenous in cells; host or cells: E. coli MC4100 membrane preparation
Protocol: as §3, §4, §5

[2] = system: P. aeruginosa 1624 ΔmexCD-oprJ, ΔmexEF-oprN; test: MIC, efflux pump mutant; format: cell-based, Pseudomonas aeruginosa; details: Pseudomonas aeruginosa
Protocol: as §2

[3] = system: P. aeruginosa 1625 ΔmexAB-oprM, ΔmexEF-oprN; test: MIC, efflux pump mutant; format: cell-based, Pseudomonas aeruginosa; details: Pseudomonas aeruginosa
Protocol: as §2

E. coli ΔampC = test: MIC, Keio mutant; format: cell-based, Escherichia coli; details: Escherichia coli
Protocol: as §1, §2

[4] = Acinetobacter baumannii, ATCC19606, ID-MHBCA (−), 0 µg/mL supplemental iron, read-out: MIC
[5] = Acinetobacter baumannii, ATCC19606, ID-MHBCA + 1 µg/mL supplemental iron, read-out: MIC
[6] = Acinetobacter baumannii, ATCC19606, ID-MHBCA, + 200 μg/mL APB, read-out: MIC with β-lactamase inhibitor (βI)
[7] = Acinetobacter baumannii, ATCC19606, MHBCA (+), no inhibitor, read-out: MIC
[8] = Acinetobacter baumannii, ATCC19606, MHBCA, + 200 μg/mL APB, read-out: MIC with β-lactamase inhibitor (βI)
[9] = E. coli MC4100 membranes; read-out: IC50 PBP4
[10] = E. coli MC4100 membranes; read-out: IC50 PBP2
[11] = E. coli MC4100 membranes; read-out: IC50 PBP3
[12] = Acinetobacter baumannii, ATCC19606, ID-MHBCA + 0.1 µg/mL supplemental iron, read-out: MIC
[13] = P. aeruginosa 1020, read-out: MIC

Structure (SMILES) | MIC (A. baumannii ATCC 19606; [4]) | MIC (A. baumannii ATCC 19606; [5]) | MIC (A. baumannii ATCC 19606; [6]) | MIC (A. baumannii ATCC 19606; [7]) | MIC (A. baumannii ATCC 19606; [8]) | MIC in combination with PAβN (A. baumannii ATCC 19606; MHBCA) | MIC [1] | IC50 (PBP1a/1b) | IC50 (PBP4; [9]) | IC50 (PBP2; [10]) | IC50 (PBP3; [11]) | MIC [2] | MIC [3] | MIC (E. coli ΔampC; ID-MHBCA) | MIC (E. coli ΔampC; MHBCA) | MIC (A. baumannii ATCC 19606; [12]) | MIC ratio unconjugated β-lactam/conjugate (A. baumannii ATCC 19606; ID-MHBCA) | MIC ratio 0/1 (A. baumannii ATCC 19606; ID-MHBCA) | MIC ratio 1/0 (A. baumannii ATCC 19606; ID-MHBCA) | MIC ratio unconjugated β-lactam/conjugate (A. baumannii ATCC 19606; MHBCA) | further results
CC1(C)S[C@@H]2[C@H](NC(=O)[C@H](N)c3ccccc3)C(=O)N2[C@H]1C(=O)O [AMP, ampicillin, reference compound] | > 200 µM | > 200 µM | > 200 µM | > 200 µM | > 200 µM | > 200 µM | > 200 µM | 7220 ± 70 nM | 8300 ± 800 nM | 11400 ± 2400 nM | 1920 ± 940 nM | > 200 µM | > 200 µM | 6.3 µM (≈ 2.2 µg/mL) | 6.3 µM (≈ 2.2 µg/mL) |  |  |  |  |  | MIC (A. baumannii ATCC 19606; ID-MHBCA (−), 0 µg/mL supplemental iron, read-out: MIC): >200 µM; MIC (A. baumannii ATCC 19606; MHBCA (+), no inhibitor, read-out: MIC): >200 µM; MIC (P. aeruginosa 1020; 1020): > 200 µM
CC1(C)SC2C(NC(=O)C(NC(=O)CN(CCCCNC(=O)c3cccc(O)c3O)C(=O)c3cccc(O)c3O)c3ccccc3)C(=O)N2C1C(=O)O (centres unmarked) [BAMP, bis-catechol (azotochelin)-ampicillin] | 0.2 µM (≈ 0.15 µg/mL) | 1.6 µM | 0.1 µM | 0.4 µM (≈ 0.3 µg/mL) | 0.2 µM | > 6.3 µM | 0.4 µM (≈ 0.3 µg/mL) | 2400 ± 540 nM | > 50000 nM | 2260 ± 570 nM | 91 ± 7 nM | 0.4 µM (≈ 0.3 µg/mL) | 0.2 µM (≈ 0.15 µg/mL) | 0.012 µM (≈ 0.009 µg/mL) | 0.024 µM (≈ 0.018 µg/mL) | 0.4 µM | >1024 | 8 | 8 | >512 | MIC (P. aeruginosa 1020; [13]): 0.4 µM (≈ 0.3 µg/mL)
O=C(CCC(=O)N(CCCCNC(=O)c1cccc(O)c1O)CCCNC(=O)c1cccc(O)c1O)NCCCCCN(O)C(=O)CCCC(=O)NC(C(=O)NC1C(=O)N2C(C(=O)O)=C(Cl)CSC12)c1ccccc1 (centres unmarked) [MCEF, mixed ligand bis-catechol-mono-hydroxamate-cefaclor] | 0.2 µM (≈ 0.216 µg/mL) | > 6.3 µM | 0.012 µM | 1.6 µM (≈ 1.73 µg/mL) | 0.4 µM | > 6.3 µM | > 100 µM | 150 ± 10 nM |  |  |  | > 100 µM | > 100 µM | > 200 µM | 13 µM (≈ 14.1 µg/mL) | 1.6 µM | >1024 | > 32 | > 32 | >128 | MIC (P. aeruginosa 1020; [13]): > 100 µM; IC50 value ratio βL/SID-βL, PBP1a/1b (PBP1a/1b; E. coli MC4100): 227; IC50 (PBP4; read-out: IC50 PBP4; E. coli MC4100 membranes): 8600 ± 1300 nM; IC50 (PBP2; read-out: IC50 PBP2; E. coli MC4100 membranes): 29300 ± 2300 nM; IC50 value ratio βL/SID-βL, PBP3 (PBP3; E. coli MC4100): 49; IC50 (PBP3; read-out: IC50 PBP3; E. coli MC4100 membranes): 320 ± 10 nM
